From patent US4870207A, “Synthesis of arphamenine A” (Zaiden Hojin Biseibutsu Kagaku Kenkyu Kai, priority 1983, dated 1989)
Where two headings read alike, the source gives them in different places.

Tests used:
aminopeptidase B = molecular target: T1, aminopeptidase B (Rattus norvegicus, UniProt O09175); test: Aminopeptidase B-inhibitory activity; format: biochemical; settings: modification of the method of Hoppusu
T1 sequence (O09175 1-650): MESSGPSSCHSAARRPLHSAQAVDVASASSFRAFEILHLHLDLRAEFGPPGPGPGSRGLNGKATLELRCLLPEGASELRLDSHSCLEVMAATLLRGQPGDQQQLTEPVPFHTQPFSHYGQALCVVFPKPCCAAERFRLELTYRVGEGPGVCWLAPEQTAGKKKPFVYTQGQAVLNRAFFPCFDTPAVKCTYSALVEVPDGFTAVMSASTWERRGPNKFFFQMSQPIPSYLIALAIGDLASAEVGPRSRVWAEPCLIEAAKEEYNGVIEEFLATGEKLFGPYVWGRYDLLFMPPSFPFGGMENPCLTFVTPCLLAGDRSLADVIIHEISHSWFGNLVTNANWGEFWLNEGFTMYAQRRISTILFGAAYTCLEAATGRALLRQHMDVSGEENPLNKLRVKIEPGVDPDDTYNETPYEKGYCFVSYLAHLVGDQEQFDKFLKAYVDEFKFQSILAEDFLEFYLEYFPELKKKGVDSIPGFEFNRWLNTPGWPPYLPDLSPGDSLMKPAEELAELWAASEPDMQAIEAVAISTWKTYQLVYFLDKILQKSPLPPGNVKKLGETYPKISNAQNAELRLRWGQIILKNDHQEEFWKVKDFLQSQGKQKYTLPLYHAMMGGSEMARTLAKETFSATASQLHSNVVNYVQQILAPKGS
Experimental: The aminopeptidase B-inhibitory activities (IC50) described above were determined by a modification of the method of Hoppusu disclosed in the specification of U.S. Pat. No. 4,595,698.

[1] = background statement, see U.S. Pat. No. 4,595,698; cited from earlier work
[2] = background statement, see U.S. Pat. No. 4,595,698; cited from earlier work; remark: listed apart in the source
[3] = system: Delayed-Type Hypersensitivity (D.T.H.); test: Delayed-Type Hypersensitivity (D.T.H.) technique, cell-mediated immunopotentiating activity; format: in vivo
Description: Accordingly, they are useful as an immunopotentiating agent.

IC50 (aminopeptidase B) [nM]	SMILES	immunopotentiating activity [1]	analgesic activity [2]	cell-mediated immunopotentiating activity [3]	cell-mediated immunopotentiating activity ([3]; listed as (Ia))
15.6	N=C(N)NCCC[C@H](N)C(=O)C[C@@H](Cc1ccccc1)C(=O)O [naturally occuring arphamenine A, arphamenine A]	shows an immunopotentiating activity	an analgesic activity	–	–
–	N=C(N)NCCC[C@H](N)C(=O)C[C@H](Cc1ccccc1)C(=O)O [Substance (I"), epi-arphamenine A]	–	–	exhibit a cell-mediated immunopotentiating activity	–
21.8	N=C(N)NCCC[C@H](N)C(=O)C[C@@H](Cc1ccccc1)C(=O)O [Substance (I'), arphamenine A]	–	–	–	exhibit a cell-mediated immunopotentiating activity
